One compound from PMC9609996, “SAR Study and Molecular Mechanism Investigation of Novel Naphthoquinone-furan-2-cyanoacryloyl Hybrids with Antitumor Activity” (Pharmaceutics, 2022) can be followed below.

One assay relates to Hep3B. As to the kind of experiment: CCK-8 anti-proliferation assay, Hep3B. The format is cell-based, human. The settings on record: 48 h, mean ± SD. As for the experimental part:
(§1) Human cervical cancer HeLa, human prostate cancer PC3, human colonic carcinoma HCT116, human lung carcinoma A549, human breast cancer MDA-MB-231, mouse melanoma B16, human ovarian cancer SKOV3, human hepatoma Hep3B, and human liver L02 cells were purchased from the Cell Bank of Shanghai Institute of Biochemistry and Cell Biology, Chinese Academy of Sciences (Shanghai, China). The HeLa, A549, B16, PC3, MDA-MB-231, HCT116, and L02 cells were cultured in Dulbecco’s modified Eagle medium (DMEM, Gibco Inc.; Gaithersburg, MD, USA). All cultures were supplied with 10% fetal bovine serum (FBS; YHSM, Beijing, China), 100 IU/mL of penicillin, and 100 μg/mL of streptomycin, and cells were incubated at 37 °C in an atmosphere of 5% CO2.
(§2) A CCK-8 kit (MCE, USA) was used to perform a CCK-8 assay. Cells were plated and grown in the 96-well plates for the indicated period (48 h) in the incubator, followed by an incubation with the CCK-8 solutions for 1–4 h. Subsequently, the absorbance (450 nm) was measured by a microplate reader. The median inhibitory concentration (IC50) was determined from the dose–response curve. Experiments were performed in a triplicate.

For the next assay, the system named is L02 cells. As to the kind of experiment: CCK-8 assay on normal cells, L02. The format is cell-based. To be noted: L02 human normal hepatocytes, 48 h, mean ± SD. As for the experimental part: as §1, §2
For orientation: Formazan colour is commonly taken as a measure of viable cells.

For assay [1], the system named is four cancer cell lines (HeLa, PC3, A549, and HCT116). As to the kind of experiment: CCK-8 inhibition rates over four cancer cell lines. The format is cell-based. The settings on record: Homo sapiens, HeLa, PC3, A549, HCT116, CCK-8, read-out: inhibition rate, span over the four cancer cell lines. As for the experimental part: First, the inhibition rates at 20 μM for all newly synthesized compounds were evaluated on four cancer cell lines (HeLa, PC3, A549, and HCT116) by a CCK-8 assay. […] A variety of aliphatic amine substituents were well tolerated (4e, 4f, 5c, and 8f).
as §1, §2

For assay [2], the system named is HeLa cells. As to the kind of experiment: Cell cycle analysis by flow cytometry. In kind it is cell-based, human. The settings on record: 12 μM; 24 h; 10.19% at 0 μM. As for the experimental part:
To investigate the effect of compound 5c on the cell cycle distribution, a flow cytometric analysis was performed. HeLa cells were treated with 5c at concentrations of 0 μM, 6 μM, 9 μM, and 12 μM for 24 h and then subjected to a flow cytometric analysis after DNA staining. […] Accordingly, treatment of HeLa cells with 5c induced a G2/M phase arrest of cell cycle progression.
(§3) For the cell cycle analysis, HeLa cells seeded in a 6-well plate (3 × 10^5 per well) were incubated with different concentrations of compound 5c or 0.1% DMSO for 24 h. Then, the cells were digested with 0.25% trypsin (without EDTA) and were washed twice with PBS, fixed in 70% ethanol overnight, and stained with PI ([…], Sigma) plus 0.2 mg/mL of DNase-free RNase A (Qiagen) for 20 minutes at room temperature. For the annexin V apoptosis assay, HeLa cells seeded in a 6-well plate (3 × 10^5 per well) were incubated with different concentrations of compound 5c or 0.1% DMSO for 24 h. Then, the cells were digested with 0.25% trypsin (without EDTA) and were washed twice with PBS. The cells were then collected and resuspended in 500 μL of the binding buffer. We added 5 μL of annexin V-FITC and PI each into the mixture in the dark. After 20 min of incubation, a flow cytometer (FACSCalibur; Becton Dickinson, Franklin Lakes, NJ, USA) was used to detect apoptosis (FITC Ex/Em = 488/525 nm and PI Ex/Em = 535/615 nm). […]

For assay [3], the system named is HeLa cells. As to the kind of experiment: Annexin V-FITC/PI apoptosis assay. In kind it is cell-based, human. The settings on record: 12 μM.
From the text: Apoptosis in cancer cells could be caused by the generation of intracellular ROS [31, 32, 33]. Three methods were utilized to assess the effect of compound 5c on the apoptosis of HeLa cells. First, Hoechst 33342 was utilized to stain the HeLa cells that were pretreated with different concentrations of compound 5c. Then, the cells were observed under a fluorescence microscope. […] Second, an annexin V-FITC/PI double staining method was used to quantitatively detect the effect of compound 5c on cell apoptosis. A quantitative analysis was performed using a flow cytometry analysis. […] Third, the levels of Bcl-xl family proteins, well-known as apoptosis-related proteins, were determined by Western blotting analysis.
as §3, with “PBS.” for “PBS. The cells were then collected and resuspended in 500 μL of the binding buffer. We added 5 μL of annexin V-FITC and PI each into the mixture in the dark. After 20 min of incubation, a flow cytometer (FACSCalibur; Becton Dickinson, Franklin Lakes, NJ, USA) was used to detect apoptosis (FITC Ex/Em = 488/525 nm and PI Ex/Em = 535/615 nm).”

The test system of assay [4] is HeLa cells. As to the kind of experiment: Wound healing assay. In kind it is cell-based, human. The settings on record: 6 μM, 48 h. The procedure: A total of 1 × 10^6 HeLa cells/well in the logarithmic growth phase were seeded into 6-well plates. When the cell density reached 80–90%, a scratch was made in the monolayer in the middle of the well with a 200 μL pipette tip. The tip was kept perpendicular to the bottom of the well to obtain a straight gap. The detached cells were washed away and removed. Wound healing within the same scraped line was then observed and photographed at the indicated time points (0 h, 24 h, and 48 h). Images were taken at 0 h, 24 h and 48 h after scraping using a phase-contrast microscope. The wound closure was calculated as a percentage (%) of the difference in the width of the wound between 0 h, 24 h and 48 h relative to 0 h, as described below: Wound closure (%) = (Width of wound at 0 h − Width of wound at 24 h)/Width of wound at 0 h × 100%

Assay [5] relates to HeLa cells. As to the kind of experiment: Colony formation assay. In kind it is cell-based, human. The settings on record: treated 24 h, cultured two weeks. The procedure: HeLa cells were cultured at 1 × 10^3 cells per well in a 6-well plate with a regular growth medium for 12 h. After the cells were fixed on the wall, they were treated with different concentrations of compound 5c or 0.1% DMSO for 24 h. Then, the cells were cultured in a fresh medium for two weeks until the colonies were visible. A crystal violet staining solution (Beyotime, Shanghai, China) was used to stain the colonies for 30 min, and the result was recorded by a smartphone. The colonies were defined as >50 cells/colony.

In a further assay the test system is ROS in HeLa cells. As to the kind of experiment: Cellular ROS detection (DCFDA flow cytometry). In kind it is cell-based, human. To be noted: 6, 9, 12 μM, 6 h. The procedure:
To measure reactive oxygen species (ROS) production, 2′,7′-dichlorofluorescein diacetate (DCFDA) (Thermo Fisher Scientific, Waltham, MA, USA; D399) was used. DCFDA is a fluorogenic dye that, after diffusion into the cell, is oxidized by ROS into 2′,7′-dichlorofluorescein (DCF), a highly fluorescent compound that can be detected by fluorescence spectroscopy. To measure ROS production, HeLa cells were treated with compound 5c at 6 μM, 9 μM, and 12 μM for 6 h. Then, cells were washed with pre-warmed 1X PBS and were incubated at 37 °C with 10 μM of DCFDA for 30 min in PBS. Subsequently, the HeLa cells were washed and analyzed in FL-1 using a FACScalibur flow cytometer (BD, USA) and using CELL Quest software (BD Biosciences, San Jose, CA, USA). Live cells were gated according to their forward scatter (FSC) and side scatter (SSC) properties. For each analysis, 20,000 events were recorded.
A general note: A flow cytometer gives signals particle by particle.

As to `N#C/C(=C\c1ccc(C2=CC(=O)c3ccccc3C2=O)o1)C(=O)NCCN1CCOCC1` [Compound 5c, (E)-2-cyano-3-(5-(1,4-dioxo-1,4-dihydronaphthalen-2-yl)furan-2-yl)-N-(2-morpholinoethyl)acrylamide], the IC50 was 34.77 ± 0.03 µM with Hep3B, above 20.5 µM in the assay on Hep3B (Homo sapiens) and 51.7 ± 0.1 µM with L02 cells. For the same compound, the inhibition at 20 µM in assay [1] is 24.7 to 75.8%. In the assay on HeLa cells [2], the “HeLa cell population in the G2/M phase” value amounted to 23.88%. The “percentage of apoptotic cells” value with HeLa cells [3] is 46.70%. Further, the cell migration result in the assay with HeLa cells [4] is recorded as “significantly inhibited”. In addition, the “colony forming ability of HeLa cells” value in the assay on HeLa cells [5] is “significantly inhibited”. Besides, the “level of ROS in cancer cells” value in the assay on ROS in HeLa cells is reported as “significantly increased”.

One may read the IC50 as the point on the concentration scale where inhibition reaches its midpoint. A higher IC50 goes with weaker potency. As usually defined, the inhibition is the percentage by which the read-out fell short of the control.
